Measured values published in patent publication US9464141B2, “Anti-ETBR antibodies and immunoconjugates” (Genentech, Inc., priority 2012, dated 2016).
Starred links: 1 amine or outer side, 2 acyl side, 3 side chain; linkers in the order of their positions; H or OH if unused. Non-standard residues stand in square brackets, D forms with d. Residues, ends and D or L forms follow the SMILES beside them. *: point of attachment. Dolaproine = CO[C@@H]([C@@H]1CCCN1)[C@@H](C)C(=O)O; Hexanoyl(6-maleimido) = O=C1C=CC(=O)N1CCCCCC(=O)*; Dil = CC[C@H](C)[C@H](NC)[C@@H](CC(=O)O)OC; PABC = O=C(OCc1ccc(N[*:1])cc1)[*:2]; X1 = C[C@@H](N*)[C@@H](O)c1ccccc1; Cit = NC(=O)NCCC[C@H](N)C(=O)O; NMeV = CN[C@H](C(=O)O)C(C)C

What was measured:
Test in all cases: In vitro cell proliferation, CellTiter-Glo, 5 days
Type in all cases: cell-based
Details in all cases: free linker-drug (without antibody)
[1] = system: Parental UACC-257X2.2 cells
Description: (§1) In vitro cell proliferation of the cell lines in the presence of the immunoconjugates was assessed. Cells were plated at 1,500 cells per well in 50 μL of normal growth medium in 96-well clear-bottom plates. Twenty-four hours later, an additional 50 μL of culture medium with serial dilutions of immunoconjugates (ch5E9-vc-MMAE or control anti-gD-vc-MMAE) were added to triplicate wells. Five days later, cell survival was determined using CellTiter-Glo Luminescent Cell Viability Reagent (G7572, Promega Corporation, Madison, Wis.) using an EnVision 2101 Mutilabel Reader (Perkin-Elmer, Waltham, Mass.).

[2] = system: In vivo-derived resistant UACC-257X2.2 cells
Description: For resistance developed in vivo, NCr nude mice (Taconic, Hudson, N.Y.) were inoculated subcutaneously in the dorsal right flank with 5 million UACC-257X2.2 cells in HBSS with Matrigel. UACC-257X2.2 cells are derived from UACC-257 cells (National Cancer Institute) and optimized for growth in vivo as follows. UACC-257 cells were injected subcutaneously in the right flank of female NCr nude mice to induce tumor growth. One tumor was harvested and grown in vitro (referred to as UACC-257X1.2 cell line). The UACC-257X1.2 line was injected again subcutaneously in the right flank of female NCr nude mice to improve the growth of the cell line in vivo. A tumor from the second injection round was collected and again adapted for in vitro growth to generate UACC-257X2.2.
Ten mice inoculated with UACC-257X2.2 cells were dosed with 3 mg/kg hu5E9.v1-MC-vc-PAB-MMAE intravenously on day 0. […]
In vitro cell proliferation of the cell lines in the presence of the immunoconjugates was assessed. […] Five days later, cell survival was determined using CellTiter-Glo Luminescent Cell Viability Reagent (G7572, Promega Corporation, Madison, Wis.) using an EnVision 2101 Mutilabel Reader (Perkin-Elmer, Waltham, Mass.).

[3] = system: In vitro-derived resistant UACC-257X2.2 cells
Description: For resistance developed in vitro, UACC-257X2.2 cells were adapted to increasing concentrations of anti-ETBR-vc-MMAE in culture dishes over the course of two months.
as §1

CC[C@H](C)[C@@H]([C@@H](CC(=O)N1CCC[C@H]1[C@H](OC)[C@@H](C)C(=O)N[C@H](C)[C@@H](O)c1ccccc1)OC)N(C)C(=O)[C@@H](NC(=O)[C@H](C(C)C)N(C)C(=O)OCc1ccc(NC(=O)[C@H](CCCNC(N)=O)NC(=O)[C@@H](NC(=O)CCCCCN2C(=O)C=CC2=O)C(C)C)cc1)C(C)C [free MC-vc-PAB-MMAE] ({Hexanoyl(6-maleimido)}-V[Cit][PABC][NMeV]V[Dil][Dolaproine]-X1)
EC50 [1]: 280 pM | EC50 [2]: 770 pM | EC50 [3]: 3500 pM
